# What was measured:
# [1] = target: T1, farnesyl diphosphate synthase (Homo sapiens, UniProt P14324); conditions: statement from cited literature (ref. 28); cited from earlier work
# T1 sequence (P14324 1-419): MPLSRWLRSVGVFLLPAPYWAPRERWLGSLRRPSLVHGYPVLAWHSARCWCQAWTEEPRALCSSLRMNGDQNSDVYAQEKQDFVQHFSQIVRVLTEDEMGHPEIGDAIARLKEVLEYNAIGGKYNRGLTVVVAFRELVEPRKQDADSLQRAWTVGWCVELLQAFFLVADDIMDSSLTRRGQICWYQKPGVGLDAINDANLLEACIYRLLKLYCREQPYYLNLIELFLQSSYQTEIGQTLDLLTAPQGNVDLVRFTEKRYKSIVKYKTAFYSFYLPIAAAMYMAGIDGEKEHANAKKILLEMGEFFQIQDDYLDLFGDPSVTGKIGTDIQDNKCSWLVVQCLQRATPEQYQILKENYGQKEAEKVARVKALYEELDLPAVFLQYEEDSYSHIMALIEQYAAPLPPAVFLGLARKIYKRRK
# glioblastoma cells = test: activity in glioblastoma cell culture (3D 'tumor' cell growth, FIG. 6); format: cell-based; conditions: 3D 'tumor' cells, comparator alendronate
# From the text: With entry to fully synthetic abietanes in hand, we explored the activity of taxodione (FL-1) and several synthetic analogs (FL-2 and FL-3) in glioblastoma cell culture (FIG. 6). […] Nevertheless, it is clear that a synthetic entry to bioactive molecules that inhibit glioblastoma cell growth has been established. This is a particularly important application because glioblastoma is an invasive brain cancer with a 5-year mean survival rate of only 5.5%. There are few effective treatments beyond surgery and ionizing radiation. Thus, new therapy modalities are urgently needed.
compound,measurement,setting,value
"CC(C)C1=CC2=CC(=O)[C@H]3C(C)(C)CCC[C@]3(C)C2=C(O)C1=O (racemic) [FL-1, (±)-taxodione]",inhibitor of farnesyl diphosphate synthase,[1],inhibitor of farnesyl diphosphate synthase
same,arresting 3D 'tumor' cell growth / inhibiting glioblastoma cell growth,glioblastoma cells,superior to alendronate

# Reference: patent US12221419B2, “Abietanes and methods of making and using the same” (Florida State University Research Foundation, Incorporated., priority 2022, dated 2025)
